Measured values: EPA's CvTdb concentration-time database

Assays:
[1] = test system: Rat; experiment: concentration in plasma after dosing; details: dosed: Tetralin, 2 mg/kg, iv, Male, F344
[2] = test system: Rat; experiment: concentration in plasma after dosing; details: dosed: Tetralin, 2 mg/kg, iv, Male, Harlan Sprague Dawley
[3] = test system: Rat; experiment: concentration in plasma after dosing; details: dosed: Tetralin, 20 mg/kg, iv, Female, Harlan Sprague Dawley
[4] = test system: Rat; experiment: concentration in plasma after dosing; details: dosed: Tetralin, 2 mg/kg, iv, Male, F344; remark: listed apart in the source
[5] = test system: Rat; experiment: concentration in plasma after dosing; details: dosed: Tetralin, 2 mg/kg, iv, Male, Harlan Sprague Dawley; remark: listed apart in the source
[6] = test system: Rat; experiment: concentration in plasma after dosing; details: dosed: Tetralin, 2 mg/kg, iv, Male, F344; remark: listed apart in the source
[7] = test system: Rat; experiment: concentration in plasma after dosing; details: dosed: Tetralin, 20 mg/kg, iv, Female, Harlan Sprague Dawley; remark: listed apart in the source
[8] = test system: Rat; experiment: concentration in plasma after dosing; details: 1 h; dosed: Tetralin; 2 mg/kg; iv; Male; Harlan Sprague Dawley
[9] = test system: Rat; experiment: concentration in plasma after dosing; details: dosed: Tetralin, 2 mg/kg, iv, Male, F344; remark: listed apart in the source
[10] = test system: Rat; experiment: concentration in plasma after dosing; details: dosed: Tetralin, 2 mg/kg, iv, Male, Harlan Sprague Dawley; remark: listed apart in the source
[11] = test system: Rat; experiment: concentration in plasma after dosing; details: dosed: Tetralin, 20 mg/kg, iv, Female, Harlan Sprague Dawley; remark: listed apart in the source
[12] = test system: Rat; experiment: concentration in plasma after dosing; details: 2 h; dosed: Tetralin; 2 mg/kg; iv; Male; Harlan Sprague Dawley
[13] = test system: Rat; experiment: concentration in plasma after dosing; details: dosed: Tetralin, 20 mg/kg, iv, Female, Harlan Sprague Dawley; remark: listed apart in the source
[14] = test system: Rat; experiment: concentration in plasma after dosing; details: dosed: Tetralin, 2 mg/kg, iv, Male, F344; remark: listed apart in the source
[15] = test system: Rat; experiment: concentration in plasma after dosing; details: dosed: Tetralin, 20 mg/kg, iv, Female, Harlan Sprague Dawley; remark: listed apart in the source
[16] = test system: Rat; experiment: concentration in plasma after dosing; details: 2 h; dosed: Tetralin; 2 mg/kg; iv; Male; F344
[17] = test system: Rat; experiment: concentration in plasma after dosing; details: dosed: Isoeugenol, 70 mg/kg, oral, Male, F344/N
[18] = test system: Rat; experiment: concentration in plasma after dosing; details: 0.5 h; dosed: Isoeugenol; 70 mg/kg; oral; Male; F344/N
[19] = test system: Rat; experiment: concentration in plasma after dosing; details: dosed: Isoeugenol, 17 mg/kg, oral, Female, F344/N
[20] = test system: Rat; experiment: concentration in plasma after dosing; details: dosed: Isoeugenol, 17 mg/kg, oral, Female, F344/N; remark: listed apart in the source
[21] = test system: Rat; experiment: concentration in plasma after dosing; details: dosed: Isoeugenol, 17 mg/kg, oral, Female, F344/N; remark: listed apart in the source
[22] = test system: Rat; experiment: concentration in plasma after dosing; details: 5 min; dosed: Isoeugenol; 17 mg/kg; oral; Male; F344/N
[23] = test system: Rat; experiment: concentration in plasma after dosing; details: 20 min; dosed: Isoeugenol; 17 mg/kg; oral; Male; F344/N
[24] = test system: Rat; experiment: concentration in plasma after dosing; details: dosed: Isoeugenol, 17 mg/kg, oral, Male, F344/N
[25] = test system: Rat; experiment: concentration in plasma after dosing; details: dosed: Isoeugenol, 70 mg/kg, oral, Male, F344/N; remark: listed apart in the source
[26] = test system: rat; experiment: concentration in blood after dosing; details: dosed: styrene, 3000 ppm, dermal, duration: 4 hr, male, F344

c1ccc2c(c1)CCCC2 [Tetralin]
Details	concentration in plasma [µg/g]
[1], 0.25 h	0.386
[1], 6 h	0.0061
[2], 0.5033 h	0.192
[2], 8 h	0.0056
[3], 0.505 h	5.59
[3], 8 h	0.077
[4], 0.09 h	1.33
[4], 4 h	0.0088
[5], 0.75 h	0.0973
[5], 12 h	0.00173
[6], 1 h	0.0668
[6], 24 h	0.00063
[7], 0.75 h	2.18
[7], 12 h	0.0369
[9], 0.5033 h	0.216
[9], 8 h	0.00356
[10], 4 h	0.00854
[10], 5 min	1.74
[11], 0.25 h	10.9
[11], 6 h	0.111
[13], 0.75 h	2.33
[13], 12 h	0.0285
[14], 4 h	0.00972
[14], 308 s	1.77
[15], 1 h	1.98
[15], 24 h	0.0136

Details	concentration in plasma [µg/g]
[8]	0.0313
[12]	0.0179
[16]	0.0337

C/C=C/c1ccc(O)c(OC)c1 [Isoeugenol]
Details	concentration in plasma [ng/mL]
[17], 1.5 h	209
[17], 5 min	526
[19], 1.5 h	52.9
[19], 5 min	355
[20], 4 h	28.5
[20], 10 min	500
[21], 0.5 h	243
[21], 8 h	18
[24], 0.5 h	130
[24], 2 h	35.7
[25], 4 h	339
[25], 20 min	557

Details	concentration in plasma [ng/mL]
[18]	469
[22]	194
[23]	132

C=Cc1ccccc1 [styrene]
[26]
Details	concentration in blood [ng/mL]
0.5 h	7760
1 h	7040
2 h	11500
3 h	7240
4 h	13000
